# Reference: patent US9695155B2, “Herbicidal substituted pyrimidinyloxy benzene compounds” (E. I. DU PONT DE NEMOURS AND COMPANY, priority 2013, dated 2017)
# What was measured:
# wheat [1] = assay: Test A preemergence; format: in vivo, Triticum aestivum; details: for Wheat plant response rating: 500 g ai/ha
# Summary of the method: (§1)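 Injury scores run from 0, no effect, to 100, complete control, judged by eye against untreated plants roughly 10 days after treatment. Chemicals carried a surfactant in a non-phytotoxic solvent and went onto loam–sand soil preemergence or onto one- to two-leaf seedlings postemergence.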
# giant foxtail [2] = assay: Test A postemergence; format: in vivo, Setaria faberii
# Summary of the method: as §1
# wheat [3] = assay: Test A postemergence; format: in vivo, Triticum aestivum
# Summary of the method: as §1
# large (Lg) crabgrass [4] = assay: Test A postemergence; format: in vivo, Digitaria sanguinalis
# Summary of the method: as §1
# corn [5] = assay: Test A postemergence; format: in vivo, Zea mays
# Summary of the method: as §1
# corn [6] = assay: Test A preemergence; format: in vivo, Zea mays; details: for Corn plant response rating: 500 g ai/ha
# Summary of the method: as §1
# pigweed [7] = assay: Test A preemergence; format: in vivo, Amaranthus retroflexus; details: for Pigweed plant response rating: 500 g ai/ha
# Summary of the method: as §1
# morningglory [8] = assay: Test A preemergence; format: in vivo, Ipomoea spp.; details: for Morningglory plant response rating: 500 g ai/ha
# Summary of the method: as §1
# pigweed [9] = assay: Test A postemergence; format: in vivo, Amaranthus retroflexus
# Summary of the method: as §1
# velvetleaf [10] = assay: Test A postemergence; format: in vivo, Abutilon theophrasti
# Summary of the method: as §1
# rice = assay: Test B flooded paddy test; format: in vivo, Oryza sativa; details: Flood, 250 g ai/ha; 0 to 100 scale where 0 is no effect and 100 is complete control
# Summary of the method: (§2)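 Compound added straight to paddy water, with pots kept flooded 3 cm above soil, on plants grown to the 2-leaf stage. Visual scoring 0-100 (100 = complete control) against untreated controls after 13 to 15 greenhouse days.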
# morningglory [11] = assay: Test A postemergence; format: in vivo, Ipomoea spp.
# Summary of the method: as §1
# barnyardgrass [12] = assay: Test A postemergence; format: in vivo, Echinochloa crus-galli
# Summary of the method: as §1
# sedge, umbrella = assay: Test B flooded paddy test; format: in vivo, Cyperus difformis; details: Flood, 250 g ai/ha; 0 to 100 scale where 0 is no effect and 100 is complete control
# Summary of the method: as §2
# velvetleaf [13] = assay: Test A preemergence; format: in vivo, Abutilon theophrasti; details: for Velvetleaf plant response rating: 500 g ai/ha
# Summary of the method: as §1
# barnyardgrass [14] = assay: Test A preemergence; format: in vivo, Echinochloa crus-galli; details: for Barnyardgrass plant response rating: 500 g ai/ha
# Summary of the method: as §1
# barnyardgrass [15] = assay: Test B flooded paddy test; format: in vivo, Echinochloa crus-galli; details: Flood, 250 g ai/ha; 0 to 100 scale where 0 is no effect and 100 is complete control
# Summary of the method: as §2
# large (Lg) crabgrass [16] = assay: Test A preemergence; format: in vivo, Digitaria sanguinalis; details: for Crabgrass, Large plant response rating: 500 g ai/ha
# Summary of the method: as §1
# Heteranthera limosa = assay: Test B flooded paddy test; format: in vivo; details: Flood, 250 g ai/ha; 0 to 100 scale where 0 is no effect and 100 is complete control
# Summary of the method: as §2
# giant foxtail [17] = assay: Test A preemergence; format: in vivo, Setaria faberii; details: for Foxtail, Giant plant response rating: 500 g ai/ha
# Summary of the method: as §1
# [18] = 0 to 100 scale where 0 is no effect and 100 is complete control
# [19] = 125 g ai/ha, 0 to 100 scale where 0 is no effect and 100 is complete control
# [20] = 500 g ai/ha, 0 to 100 scale where 0 is no effect and 100 is complete control
# [21] = 0 to 100 scale, 0 no effect, 100 complete control, approx. 10 days
# [22] = 500 g ai/ha, 0 to 100 scale, 0 no effect, 100 complete control
smiles,measurement,setting,value
N#Cc1cnc(Oc2ccccc2-n2cc(Br)cn2)nc1 [Compound 233],Wheat plant response rating (0 to 100 scale),wheat [1]; 125 g ai/ha,0
same,Wheat plant response rating,wheat [1]; [18],0
same,"Foxtail, Giant plant response rating",giant foxtail [2]; [19],0
same,"Plant response rating, Foxtail, Giant",giant foxtail [2]; [20],20
same,Wheat plant response rating,wheat [3]; [19],0
same,"Plant response rating, Wheat",wheat [3]; [20],0
same,"Crabgrass, Large plant response rating",large (Lg) crabgrass [4]; [19],0
same,"Plant response rating, Crabgrass, Large",large (Lg) crabgrass [4]; [20],10
same,Corn plant response rating,corn [5]; [19],0
same,"Plant response rating, Corn",corn [5]; [20],0
same,Corn plant response rating (0 to 100 scale),corn [6]; 125 g ai/ha,0
same,Corn plant response rating,corn [6]; [18],0
same,Pigweed plant response rating (0 to 100 scale),pigweed [7]; 125 g ai/ha,0
same,Pigweed plant response rating,pigweed [7]; [18],20
same,Morningglory plant response rating (0 to 100 scale),morningglory [8]; 125 g ai/ha,0
same,Morningglory plant response rating,morningglory [8]; [18],0
same,Pigweed plant response rating,pigweed [9]; [19],20
same,"Plant response rating, Pigweed",pigweed [9]; [20],50
same,Velvetleaf plant response rating,velvetleaf [10]; [19],0
same,"Plant response rating, Velvetleaf",velvetleaf [10]; [20],30
same,"Plant response rating, Rice",rice,20
same,Morningglory plant response rating,morningglory [11]; [19],0
same,"Plant response rating, Morningglory",morningglory [11]; [20],0
same,Barnyardgrass plant response rating,barnyardgrass [12]; [19],0
same,"Plant response rating, Barnyardgrass",barnyardgrass [12]; [20],20
same,"Plant response rating, Sedge, Umbrella","sedge, umbrella",50
same,Velvetleaf plant response rating (0 to 100 scale),velvetleaf [13]; 125 g ai/ha,0
same,Velvetleaf plant response rating,velvetleaf [13]; [18],0
same,"Barnyardgrass plant response rating (0 to 100 scale, 0 is no effect, 100 is complete control)",barnyardgrass [14]; 125 g ai/ha,0
same,Barnyardgrass plant response rating,barnyardgrass [14]; [18],0
same,"Plant response rating, Barnyardgrass",barnyardgrass [15],10
same,"Crabgrass, Large plant response rating (0 to 100 scale)",large (Lg) crabgrass [16]; 125 g ai/ha,0
same,"Crabgrass, Large plant response rating",large (Lg) crabgrass [16]; [18],10
same,"Plant response rating, Ducksalad",Heteranthera limosa,50
same,"Foxtail, Giant plant response rating (0 to 100 scale)",giant foxtail [17]; 125 g ai/ha,0
same,"Foxtail, Giant plant response rating",giant foxtail [17]; [18],0
Cc1cccc(Oc2ncc(Br)cn2)c1-n1cc(Br)cn1 [Compound 45],"Plant response rating, Wheat",wheat [1]; [19],0
same,Wheat plant response rating,wheat [1]; [21],0
same,"Plant response rating, Foxtail, Giant",giant foxtail [2]; [19],70
same,"Plant response rating, Foxtail, Giant",giant foxtail [2]; [22],90
same,"Plant response rating, Wheat",wheat [3]; [19],0
same,"Plant response rating, Wheat",wheat [3]; [22],40
same,"Plant response rating, Crabgrass, Large",large (Lg) crabgrass [4]; [19],60
same,"Plant response rating, Crabgrass, Large",large (Lg) crabgrass [4]; [22],100
same,"Plant response rating, Corn",corn [5]; [19],10
same,"Plant response rating, Corn",corn [5]; [22],70
same,"Plant response rating, Corn",corn [6]; [19],0
same,Corn plant response rating,corn [6]; [21],20
same,"Plant response rating, Pigweed",pigweed [7]; [19],100
same,Pigweed plant response rating,pigweed [7]; [21],100
same,"Plant response rating, Morningglory",morningglory [8]; [19],0
same,Morningglory plant response rating,morningglory [8]; [21],10
same,"Plant response rating, Pigweed",pigweed [9]; [19],60
same,"Plant response rating, Pigweed",pigweed [9]; [22],80
same,"Plant response rating, Velvetleaf",velvetleaf [10]; [19],100
same,"Plant response rating, Velvetleaf",velvetleaf [10]; [22],100
same,"Plant response rating, Rice",rice,0
same,"Plant response rating, Morningglory",morningglory [11]; [19],10
same,"Plant response rating, Morningglory",morningglory [11]; [22],20
same,"Plant response rating, Barnyardgrass",barnyardgrass [12]; [19],40
same,"Plant response rating, Barnyardgrass",barnyardgrass [12]; [22],100
same,"Plant response rating, Sedge, Umbrella","sedge, umbrella",75
same,"Plant response rating, Velvetleaf",velvetleaf [13]; [19],100
same,Velvetleaf plant response rating,velvetleaf [13]; [21],100
same,"Plant response rating, Barnyardgrass",barnyardgrass [14]; [19],30
same,Barnyardgrass plant response rating,barnyardgrass [14]; [21],100
same,"Plant response rating, Barnyardgrass",barnyardgrass [15],30
same,"Plant response rating, Crabgrass, Large",large (Lg) crabgrass [16]; [19],90
same,"Crabgrass, Large plant response rating",large (Lg) crabgrass [16]; [21],100
same,"Plant response rating, Ducksalad",Heteranthera limosa,85
same,"Plant response rating, Foxtail, Giant",giant foxtail [17]; [19],90
same,"Foxtail, Giant plant response rating",giant foxtail [17]; [21],100
